In the supplement of paper PMC10331698:
± gives the standard deviation of the averaged measurements.

Assays:
Test in all cases: level (log10 ratio to DMSO vehicle control); higher = higher biomarker level / cell amount than vehicle control
Conditions in all cases: in DMSO
Perfluorooctanamide = compound: NC(=O)C(F)(F)C(F)(F)C(F)(F)C(F)(F)C(F)(F)C(F)(F)C(F)(F)F [Perfluorooctanamide]
Experimental: (§1)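 BioMAP Diversity Plus panel of 12 human primary cell co-culture systems (3C, 4H, LPS, SAg, BT, BF4T, BE3C, CASM3C, HDF3CGF, KF3CT, MyoF, Mphg). Compounds were added 1 h before stimulation and left for 24 h (MyoF 48 h; BT 72 h for soluble read-outs or 6 d for IgG). Biomarkers were read by ELISA, cytotoxicity by SRB, PBMC viability and proliferation by Alamar Blue. Each well value was divided by the mean of 8 DMSO control wells on the same plate and log10 transformed; duplicate blinded samples were tested at 4 concentrations.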

[1] = compound: O=S(=O)(O)C(F)(F)C(F)(F)C(F)(F)C(F)(F)C(F)(F)C(F)(F)C(F)(F)C(F)(F)F [Perfluorooctanesulfonic acid]
Experimental: as §1

[2] = compound: C=C(C)C(=O)OCC(F)(F)C(F)(F)C(F)(F)C(F)(F)C(F)(F)C(F)(F)C(F)(F)F
Experimental: as §1

1H,1H-Heptafluorobutanol = compound: OCC(F)(F)C(F)(F)C(F)(F)F [1H,1H-Heptafluorobutanol]
Experimental: as §1

[3] = compound: C=CC(=O)OCCC(F)(F)C(F)(F)C(F)(F)C(F)(F)F [2-(Perfluorobutyl)ethyl acrylate]
Experimental: as §1

[4] = compound: O=S(=O)(O)C(F)(F)C(F)(F)C(F)(F)C(F)(F)F [Perfluorobutanesulfonic acid]
Experimental: as §1

Test System | level (log10) (Perfluorooctanamide; 6700 nM) | level (log10) (Perfluorooctanamide; 20000 nM) | level (log10) (Perfluorooctanamide; 60000 nM) | level (log10) ([1]; 6700 nM) | level (log10) ([1]; 20000 nM) | level (log10) ([1]; 60000 nM) | level (log10) ([2]; 6700 nM) | level (log10) ([2]; 20000 nM) | level (log10) (1H,1H-Heptafluorobutanol; 6700 nM) | level (log10) (1H,1H-Heptafluorobutanol; 20000 nM) | level (log10) (1H,1H-Heptafluorobutanol; 60000 nM) | level (log10) ([3]; 6700 nM) | level (log10) ([3]; 20000 nM) | level (log10) ([3]; 60000 nM) | level (log10) ([4]; 6700 nM) | level (log10) ([4]; 20000 nM) | level (log10) ([4]; 60000 nM)
CASM3C:M-CSF | -0.0055 ± 0.04 | 0.0035 ± 0.03 | 0.027 ± 0.048 | -0.0135 ± 0.016 | 0.009 ± 0.0028 | -0.009 ± 0.03 | -0.0155 ± 0.0092 | 0.0165 ± 0.03 | 0.006 ± 0.021 | 0.03 ± 0.041 | 0.038 ± 0.016 | -0.0165 ± 0.019 | -0.0355 ± 0.022 | -0.021 ± 0.044 | -0.007 ± 0.031 | -0.002 | 0.0025 ± 0.011
HDF3CGF:EGFR | 0.008 ± 0.013 | 0.0125 ± 0.015 | 0.0375 ± 0.042 | -0.0205 ± 0.0064 | -0.0495 ± 0.043 | -0.04 ± 0.018 | 0.0245 ± 0.005 | -0.007 ± 0.048 | -0.086 ± 0.031 | -0.0205 ± 0.081 | -0.039 ± 0.1 | -0.002 ± 0.016 | -0.0165 ± 0.005 | -0.0055 ± 0.021 | 0.0105 ± 0.005 | -0.032 ± 0.048 | -0.0205 ± 0.032
3C:CD142/Tissue Factor | 0.029 ± 0.033 | 0.009 ± 0.013 | 0.0245 ± 0.06 | -0.0185 ± 0.07 | -0.0285 ± 0.073 | 0.0315 ± 0.067 | -0.022 ± 0.058 | -0.005 ± 0.051 | -0.0065 ± 0.021 | 0.0105 ± 0.015 | 0.026 ± 0.025 | -0.0105 ± 0.043 | -0.127 ± 0.034 | -0.381 ± 0.016 | 0.003 ± 0.0028 | 0.001 ± 0.0071 | -0.005 ± 0.038
lMphg:SRB-Mphg | -0.0145 ± 0.021 | -0.01 ± 0.0071 | -0.016 ± 0.0057 | -0.0005 ± 0.021 | 0.007 ± 0.0071 | 0.0055 ± 0.0035 | 0.0095 ± 0.052 | 0.0365 ± 0.03 | 0.005 ± 0.0028 | -0.009 ± 0.0042 | 0.006 ± 0.0099 | 0.012 ± 0.011 | 0.0075 ± 0.016 | -0.006 ± 0.021 | 0.01 ± 0.018 | 0.0045 ± 0.015 | -0.0005 ± 0.012
KF3CT:SRB | -0.0065 ± 0.005 | -0.0075 ± 0.0035 | 0 ± 0.0028 | -0.0195 ± 0.0021 | -0.012 ± 0.0042 | -0.012 ± 0.0099 | -0.0185 ± 0.0092 | -0.015 ± 0.011 | 0.0015 ± 0.015 | 0.0005 ± 0.00071 | 0.0095 ± 0.0021 | -0.01 ± 0.0028 | -0.0095 ± 0.005 | -0.0205 ± 0.013 | 0.002 ± 0.0042 | 0 ± 0.0014 | 0 ± 0.0014
CASM3C:CCL2/MCP-1 | -0.013 ± 0.03 | -0.013 ± 0.014 | -0.014 ± 0.0099 | -0.0025 ± 0.015 | -0.0065 ± 0.0064 | 0.019 ± 0.023 | -0.015 ± 0.0042 | 0.007 ± 0.018 | 0.006 ± 0.0099 | 0.006 ± 0.0057 | 0.0095 ± 0.026 | -0.001 ± 0.0099 | -0.0085 ± 0.0064 | -0.0035 ± 0.0064 | -0.0085 ± 0.0092 | -0.0125 ± 0.035 | -0.0045 ± 0.021
3C:CD54/ICAM-1 | -0.012 ± 0.011 | -0.003 ± 0.013 | 0.0335 ± 0.012 | 0.004 ± 0.023 | 0.0185 ± 0.019 | 0.071 ± 0.024 | 0.019 ± 0.028 | 0.014 ± 0.018 | 0.0095 ± 0.0064 | 0.003 ± 0.0085 | 0.0075 ± 0.0064 | 0.0055 ± 0.0021 | -0.01 ± 0.0042 | -0.01 ± 0.011 | -0.008 ± 0.0014 | 0.0035 ± 0.0021 | 0.0015 ± 0.0021
HDF3CGF:CXCL11/I-TAC | -0.006 ± 0.0099 | -0.0185 ± 0.016 | -0.016 ± 0.0057 | -0.0165 ± 0.016 | -0.0185 ± 0.00071 | -0.087 ± 0.017 | 0.016 ± 0.0071 | -0.009 ± 0.023 | -0.0135 ± 0.022 | -0.0185 ± 0.011 | -0.031 ± 0.061 | -0.045 ± 0.062 | -0.124 ± 0.023 | -0.317 ± 0.087 | -0.0235 ± 0.00071 | 0.005 ± 0.0028 | -0.005 ± 0.0014
KF3CT:uPA | -0.012 ± 0.037 | 0.0035 ± 0.015 | -0.0155 ± 0.012 | -0.001 ± 0.0057 | -0.012 ± 0.018 | -0.021 ± 0.0057 | 0.0105 ± 0.0092 | 0.009 ± 0.0085 | 0.0095 ± 0.0021 | 0.0015 ± 0.0078 | 0.0065 ± 0.00071 | -0.012 ± 0.0099 | 0.0155 ± 0.00071 | -0.0225 ± 0.00071 | -0.0275 ± 0.029 | -0.0215 ± 0.00071 | -0.0035 ± 0.00071
HDF3CGF:PAI-I | -0.016 ± 0.013 | -0.03 ± 0.0099 | -0.0235 ± 0.0078 | 0.006 | 0.0125 ± 0.011 | -0.0015 ± 0.025 | 0.011 ± 0.0099 | 0.0095 ± 0.019 | -0.037 ± 0.037 | -0.0045 ± 0.025 | -0.054 ± 0.083 | -0.0135 ± 0.0035 | -0.0185 ± 0.023 | -0.016 ± 0.024 | -0.017 ± 0.034 | 0.007 ± 0.045 | -0.0075 ± 0.03
MyoF:Collagen I | -0.007 ± 0.0099 | -0.0265 ± 0.015 | -0.0435 ± 0.0035 | -0.012 ± 0.018 | -0.0045 ± 0.0092 | 0.015 ± 0.021 | 0.01 | -0.007 ± 0.0071 | -0.01 ± 0.024 | -0.0065 ± 0.022 | -0.0005 ± 0.013 | 0.0105 ± 0.016 | 0.01 ± 0.03 | -0.002 ± 0.025 | -0.017 ± 0.023 | -0.004 ± 0.0014 | -0.0235 ± 0.0064
CASM3C:CXCL8/IL-8 | 0.013 ± 0.025 | 0.013 ± 0.016 | 0.044 ± 0.014 | 0.001 ± 0.038 | 0.0045 ± 0.025 | 0.0485 ± 0.0021 | -0.015 ± 0.018 | -0.001 ± 0.016 | 0.007 ± 0.0099 | 0.0045 ± 0.021 | 0.014 ± 0.04 | -0.0045 ± 0.0064 | -0.009 ± 0.0014 | -0.028 ± 0.014 | 0.0255 ± 0.049 | 0.0255 ± 0.025 | 0.0375 ± 0.025
lMphg:CD62E/E-Selectin | 0.022 ± 0.048 | 0.0285 ± 0.043 | -0.0165 ± 0.07 | -0.0015 ± 0.023 | 0.0385 ± 0.013 | 0.186 ± 0.029 | -0.0215 ± 0.0021 | -0.021 ± 0.0042 | -0.0085 ± 0.021 | 0.001 ± 0.017 | 0 ± 0.045 | 0.01 ± 0.0071 | -0.006 ± 0.0099 | 0.001 ± 0.0042 | 0.0405 ± 0.0035 | 0.041 ± 0.044 | 0.0215 ± 0.046
BE3C:uPA | 0.0025 ± 0.0035 | 0.0005 ± 0.005 | 0.0135 ± 0.0021 | -0.003 ± 0.0099 | -0.031 | -0.122 ± 0.013 | -0.008 ± 0.011 | -0.004 ± 0.021 | -0.0035 ± 0.005 | 0.015 ± 0.011 | 0.002 ± 0.0028 | 0.0075 ± 0.032 | -0.0035 ± 0.022 | -0.0175 ± 0.015 | -0.0035 ± 0.0021 | -0.007 ± 0.0042 | -0.005 ± 0.0099
MyoF:Collagen III | -0.0005 ± 0.029 | 0.0045 ± 0.033 | 0.002 ± 0.013 | -0.0265 ± 0.026 | -0.025 ± 0.0071 | -0.0385 ± 0.012 | -0.014 ± 0.0014 | -0.014 ± 0.0042 | 0.0065 ± 0.0035 | -0.0065 ± 0.005 | -0.0065 ± 0.0064 | -0.009 ± 0.016 | -0.006 ± 0.0028 | -0.0265 ± 0.013 | 0.02 ± 0.024 | 0.0265 ± 0.0064 | 0.0145 ± 0.0064
KF3CT:CD54/ICAM-1 | 0.0015 ± 0.0078 | 0 ± 0.014 | 0.001 | -0.0085 ± 0.0035 | 0.003 ± 0.02 | 0.0115 ± 0.011 | 0.0045 ± 0.019 | -0.018 ± 0.031 | 0.009 ± 0.0099 | -0.0095 ± 0.0092 | 0.019 ± 0.0014 | -0.0085 ± 0.0092 | -0.0245 ± 0.0078 | -0.054 ± 0.0099 | 0.0015 ± 0.029 | 0.0225 ± 0.012 | 0.0005 ± 0.00071
